This is an account of results in patent US20250346931A1, “METHODS FOR PRODUCING HALOGENATED COMPOUNDS” (BIGELOW LABORATORY FOR OCEAN SCIENCES, priority 2022, published 2025).

Data set [1] relates to rumen-derived microbial communities. The experiment in a line: Inhibition of methane production in rumen-derived microbial culture. Format: cell-based, dairy cattle. Particulars: for IC50: Bos taurus, read-out: concentration giving 50% suppression of methane production. How it is done: FIG. 5 illustrates the production and testing process of small organic halogenated compounds for inhibition of methanogenesis. In this example, the small organic halogenated compounds produced by VBPO are incubated in a microbial culture system derived from rumen fluid obtained from dairy cattle, to determine their relative abilities at inhibiting methane production. Briefly, 1,1-dibromoacetone, co-product bromoform and derivative dibromomethane, were separately added to the culture systems. The rate of methane production was monitored in each reaction (FIGS. 6A-6C).

The nature of data set [2]: ciVCPO reaction velocity with PAA or H2O2 as peroxide source, Michaelis-Menten fit. It is filed as biochemical. The source says:
This Example describes a method for utilizing peracetic acid as a substrate for production of small, halogenated organic compounds in lieu of hydrogen peroxide using ciVCPO. PAAM is a readily available source of peracetic acid, consisting of 32% w/v peracetic acid and 6% w/v hydrogen peroxide. As peracetic acid is not an efficient two electron reductant, and unlike hydrogen peroxide, cannot produce oxygen in the presence of hypochlorous acid and catalytic quantities of chloride ions, hydrogen peroxide must be removed to avoid oxygen production employing the enzyme catalase, derived from bovine liver.
The reaction velocity is fitted according to Michaelis-Menten kinetics to give v=f([PAA] or [H2O2]).

Setting [3] is: rumen-derived microbial communities.

Like-named read-outs stand apart in the source and are kept apart here.

Take `CC(=O)C(Br)Br` [1,1-dibromoacetone]: the IC50 in data set [1] worked out at 125000 nM. For the same molecule, the “relative effectiveness for inhibiting methane production among compounds screened” value in data set [1] (compared with bromoform and dibromomethane) is listed as “least effective”.

Regarding `BrC(Br)Br` [bromoform, reference compound], in data set [1] (setting [3]), the IC50 is 200 nM.

Consider `BrCBr` [dibromomethane, reference compound], for which the IC50 in data set [1] (setting [3]) turned out to be 150 nM.

B1: ciVCPO: vanadium chloroperoxidase from Curvularia inaequalis produced in Pichia pastoris (protein, UniProt P49053 1-609, looked up)
Vanadium chloroperoxidase: MGSVTPIPLPKIDEPEEYNTNYILFWNHVGLELNRVTHTVGGPLTGPPLSARALGMLHLAIHDAYFSICPPTDFTTFLSPDTENAAYRLPSPNGANDARQAVAGAALKMLSSLYMKPVEQPNPNPGANISDNAYAQLGLVLDRSVLEAPGGVDRESASFMFGEDVADVFFALLNDPRGASQEGYHPTPGRYKFDDEPTHPVVLIPVDPNNPNGPKMPFRQYHAPFYGKTTKRFATQSEHFLADPPGLRSNADETAEYDDAVRVAIAMGGAQALNSTKRSPWQTAQGLYWAYDGSNLIGTPPRFYNQIVRRIAVTYKKEEDLANSEVNNADFARLFALVDVACTDAGIFSWKEKWEFEFWRPLSGVRDDGRPDHGDPFWLTLGAPATNTNDIPFKPPFPAYPSGHATFGGAVFQMVRRYYNGRVGTWKDDEPDNIAIDMMISEELNGVNRDLRQPYDPTAPIEDQPGIVRTRIVRHFDSAWELMFENAISRIFLGVHWRFDAAAARDILIPTTTKDVYAVDNNGATVFQNVEDIRYTTRGTREDPEGLFPIGGVPLGIEIADEIFNNGLKPTPPEIQPMPQETPVQKPVGQQPVKGMWEEEQAPVVKEAP
Take B1: the “Vmax, PAA relative to Vmax, H2O2” value in data set [2] (FIG. 13 legend) was “approximately twice”. The “vmax and Km with PAA as substrate compared with hydrogen peroxide” value in data set [2] (constant NaCl 150 mM) was “higher vmax and Km than hydrogen peroxide”.
